Experimental data taken from patent US20210386722A1, “Treatment of Covid-19 with Nitroxides” (priority 2021, published 2021).

Key:
SARS-COV-2 [1] = experiment: Treatment of a patient with presumptive Covid-19 (case report); type: in vivo, human
Text: A septuagenarian person experienced sudden frightening onset of severe headache, marked nausea and vomiting, pharyngitis, severe upper respiratory congestion, fever, chills, myalgia, weakness, malaise, and mild to moderate pulmonary congestion. O2 saturation=96%. Patient had been taking Tempol off-and-on for years for cancer prophylaxis and for its possible antiaging activity, as well as some miscellaneous actions such as treatment of periodontitis and osteoarthritis. But, concerned that it would interfere with their activity, they had stopped Tempol about 6 weeks before receiving influenza (Fluvax) and Zoster (Zostavax) immunizations. The presumptive-diagnosis was “Covid-19”, possibly from a medically-related exposure.
Treatment: Nausea and vomiting continued without respite for several hours. Anti-nausea tablets were twice regurgitated intact. Accordingly, treatment was initiated with 30 mg of Tempol PO as the hydroxylamine in a 6% water solution containing 90 mg vitamin-C. Patient kept this down. Along with Tempol-zinc gargles for pharyngitis, intranasal treatment was then initiated with a medication-soaked cotton swab and insufflation, repeated approximately q 6 h as symptoms returned. This was followed by similar doses of Tempol-H three and six hours later, repeated 2-3 times a day, PO for the next ten days. Subsequent intranasal treatment was also repeated 1-3 times a day for 10 days, as needed, titrating to relief of oropharyngeal symptoms as they recurred. On days 2-3, treatment was briefly initiated with hydroxychloroquine, zinc, doxycycline, ivermectin, and famotidine, then withdrawn.

SARS-COV-2 [2] = experiment: Person on Tempol heavily exposed to patient 1; type: in vivo, human; settings: Tempol 60 mg/day
Text: By days 5-7 remaining symptoms were mild reversible-on-treatment nasal congestion, pharyngitis, and malaise. […] PCR for SARS-COV-2 RNA was negative at day 10. While not surprising considering the clinical course, in retrospect, this may have signified some direct antiviral effect of the application of Tempol directly to the upper respiratory mucosa and oropharynx by insufflation, inhalation, or gargling. […] After patient discontinued treatment for several weeks, subsequent putative recurrent post-acute symptoms of Covid-19 such as malaise, myalgia, and shortness of breath appeared.

[3] = target: T1, SARS-COV-2 replicase (RNA-Dependent RNA polymerase) (Severe acute respiratory syndrome coronavirus 2, UniProt P0DTD1); settings: by oxidizing iron-sulfur centers; cited from earlier work
T1 construct: SARS-COV-2 replicase (RNA-Dependent RNA polymerase)

[4] = tested on: nonrespiratory coronavirus; settings: mouse, in vivo; cited from earlier work
SARS-COV-2 [5] = settings: potentially physiological Tempol concentrations; cited from earlier work
SARS-COV-2 [6] = settings: in vivo; cited from earlier work

## CC1(C)CC(O)CC(C)(C)N1[O] [Tempol, 4-hydroxy-TEMPO]
SARS-COV-2 [1]; day 10
  PCR for SARS-COV-2 RNA: negative
SARS-COV-2 [1]; days 8-9, excepting slight malaise
  overall symptoms: essentially asymptomatic
SARS-COV-2 [1]; further treatment as above plus lung inhalation of 0.1 ml of 6% Tempol or Tempol-H solution
  recurrent post-acute symptoms of Covid-19 (malaise, myalgia, shortness of breath): responded reversibly
SARS-COV-2 [1]; same doses as Tempol-H
  efficacy of Tempol itself (non-reduced form): effective at the same doses
SARS-COV-2 [2]
  development of coronavirus disease after heavy exposure: did not develop clinically-significant coronavirus disease
[3]
  effect on replicase enzyme: inactivates this key enzyme
[4]
  murine viral encephalomyelitis: ameliorates
SARS-COV-2 [5]
  viral replication in vitro: markedly inhibits viral replication

## CC1(C)CC(O)CC(C)(C)N1O [Tempol-H]
SARS-COV-2 [1]; after initiation of treatment
  pulmonary congestion: cleared somewhat
SARS-COV-2 [1]; repeated intranasal treatment (soaked cotton swab and insufflation)
  nasal congestion: quickly reversibly-eased
SARS-COV-2 [1]; that night and several subsequent ones
  events experienced by the patient during treatment: “vivid dreaming”
SARS-COV-2 [1]; within one to two hours of initiation of treatment
  headache: eased significantly

## CCN(CCO)CCCC(C)Nc1ccnc2cc(Cl)ccc12 (centres unmarked) [hydroxychloroquine]
SARS-COV-2 [6]
  efficacy of systemic treatment of Covid-19: ineffective or only marginally-effective

## CCC(CC)COC(=O)[C@H](C)N[P@](=O)(OC[C@H]1O[C@@](C#N)(c2ccc3c(N)ncnn23)[C@H](O)[C@@H]1O)Oc1ccccc1 [Remdisivir]
SARS-COV-2 [6]
  efficacy of systemic treatment of Covid-19: ineffective or only marginally-effective
